Assay: pERK AlphaScreen Protocol: KYSE-520 cells (10 k cells/well) were grown in 384-well plate in 20 uL of medium (RPMI-1640, without phenol red, containing 10% FBS) at 37° C. with 5% CO2 overnight. DMSO (control) or increasing concentrations of compounds were diluted in medium, added to the 384-well plate (5 uL/well, final DMSO concentration of 1%), and cells were then incubated with compounds for 2 hr. Phospho-ERK levels were measured using phospho-ERK1/2 AlphaScreen SureFire (PerkinElmer, TGRESB10K) following manufacturer's recommendations. Dose-response curves were analyzed using IC50 regression curve fitting (GeneData Screener). Curves were normalized to a high control without inhibitor (DMSO only), and low control (1 μM selumetinib).
Settings: KYSE-520, 2 h

Structure (SMILES)	IC50
COc1ccc(CNc2nccc(C(=O)c3ncc(N4CCC(C)([C@@H](C)N[S+]([O-])C(C)(C)C)CC4)nc3Cl)c2Cl)cc1 (some centres not stated)	100 nM
CC1(N)CCN(c2cnc3c(-c4cc(N)ccc4Cl)n[nH]c3n2)CC1	406 nM

— ChEMBL document CHEMBL5726901, “Heterocyclic inhibitors of PTPN11” (2019)
